pIC50: −log10 of the molar value. Several values for one entry are separate records, joined by “and”; a condition that tells them apart may be missing. Equal entries are not always repeated.
Assays:
Assay type in all cases: biochemical
[1] = target: T1, 15-LOX-1 (Homo sapiens, UniProt P16050); experiment: ABP-based ELISA assay with A549 cell lysate, 15-LOX-1; parameters: the endogenous LOXs were captured on an anti‐LOX antibody precoated 96‐well plate; endogenous in cells; host or cells: A549 cell lysate
T1 sequence (P16050 1-662): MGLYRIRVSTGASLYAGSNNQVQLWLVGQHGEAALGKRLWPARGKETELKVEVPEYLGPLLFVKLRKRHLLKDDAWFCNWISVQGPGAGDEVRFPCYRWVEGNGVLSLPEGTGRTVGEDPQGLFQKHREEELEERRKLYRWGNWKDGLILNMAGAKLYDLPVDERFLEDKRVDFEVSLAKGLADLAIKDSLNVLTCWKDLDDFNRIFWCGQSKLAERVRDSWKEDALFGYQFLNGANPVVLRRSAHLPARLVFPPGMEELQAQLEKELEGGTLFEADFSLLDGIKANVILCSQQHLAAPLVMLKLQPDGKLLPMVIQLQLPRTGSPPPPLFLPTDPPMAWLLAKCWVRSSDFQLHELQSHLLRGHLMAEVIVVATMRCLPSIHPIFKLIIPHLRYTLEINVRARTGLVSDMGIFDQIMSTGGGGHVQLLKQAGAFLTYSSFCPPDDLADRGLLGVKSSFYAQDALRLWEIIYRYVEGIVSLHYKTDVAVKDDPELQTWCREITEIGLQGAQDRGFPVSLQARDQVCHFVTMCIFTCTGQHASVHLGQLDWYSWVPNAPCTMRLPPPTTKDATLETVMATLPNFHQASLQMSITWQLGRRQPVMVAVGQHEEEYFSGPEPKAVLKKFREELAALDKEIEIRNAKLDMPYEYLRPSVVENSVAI
Method: (§1) A549 cell lysate was treated with a serial dilution of the respective inhibitor. Subsequently, samples were labeled by treatment with 1 μM of Labelox B for 1 min. […] Data are mean±s.d., n≥3 independent experiments. […]
(§2) 1.6. Immunoblotting Analysis […]
(§3) 1.7. ABPP-based LOX inhibitor specificity validation
(§4) A549 cells were lysed by RIPA buffer supplemented with 1x PIC. After sonication and centrifugation, the supernatant was collected, and the protein concentration was determined by a Pierce BCA Protein Assay Kit (Thermo Fisher Scientific, USA). The lysates were then diluted with PBS to 300 ng/µl and stored in -20°C. To label endogenous LOXs with Labelox B under the competition condition, 180 µl diluted lysates were incubated with 200 µl different LOX inhibitor solution (in PBS) with desired concentrations for 18 min to inhibit LOXs activity. Later, 20 µl of a 20 µM Labelox B (in PBS) was added and incubated shortly for 2 min, followed by adding 50 µl of a 0.5 M EDTA to stop the labeling reaction. The reaction mixture was 450 µl in total. Inhibitors and Labelox B were absent in positive and […]
(§5) negative control, respectively. To detect the competition labeling of Labelox B among different LOXs, a high-binding 96-well plate (Greiner, #M4561) was coated with 5-LOX (#ab169755, Abcam), 12-LOX […]
(§6) (1:500 dilution in PBS) for overnight at 4°C. After washing triply with 0.05%PBST, the plate was blocked with 2% (w/v) BSA in PBST. Subsequently, 100 µl of each reaction mixture was added to the LOX-antibody-coated wells. There are four LOX antibodies used for coating. Therefore, in total, 400 µl mixture is needed for each reaction. After one hour of incubation, LOXs were pulled down by antibodies accordingly. Next, 100 µl of HRP-conjugated streptavidin (1:2000 dilution in PBS, Thermo Fisher Scientific, USA) was added to each well to detect the D04 labeled LOXs among precipitated LOXs. After washing with PBST, 100 µl of mixed HRP substrate reagent (R&D Systems, Minneapolis, USA) was added, and the colorizing reaction was stopped by adding 100 µl of 1M sulfuric acid. The absorbance at […]

[2] = target: T1, 15-LOX-1; experiment: ABP-based ELISA assay with recombinant 15-LOX-1 (inhibition of Labelox B labeling); parameters: His-tag (N); made in house; host or cells: E. coli BL21(DE3)
Method: as §1, §2, §3, §4, §5
(1:500 dilution in PBS) for overnight at 4°C. After washing triply with 0.05%PBST, the plate was blocked with 2% (w/v) BSA in PBST. Subsequently, 100 µl of each reaction mixture was added to the LOX-

[3] = target: T2, 5-LOX (Homo sapiens, UniProt P09917); experiment: ABP-based ELISA assay with A549 cell lysate, 5-LOX
T2 construct: the endogenous LOXs were captured on an anti‐LOX antibody precoated 96‐well plate; endogenous in cells; host or cells: A549 cell lysate
T2 sequence (P09917 1-674): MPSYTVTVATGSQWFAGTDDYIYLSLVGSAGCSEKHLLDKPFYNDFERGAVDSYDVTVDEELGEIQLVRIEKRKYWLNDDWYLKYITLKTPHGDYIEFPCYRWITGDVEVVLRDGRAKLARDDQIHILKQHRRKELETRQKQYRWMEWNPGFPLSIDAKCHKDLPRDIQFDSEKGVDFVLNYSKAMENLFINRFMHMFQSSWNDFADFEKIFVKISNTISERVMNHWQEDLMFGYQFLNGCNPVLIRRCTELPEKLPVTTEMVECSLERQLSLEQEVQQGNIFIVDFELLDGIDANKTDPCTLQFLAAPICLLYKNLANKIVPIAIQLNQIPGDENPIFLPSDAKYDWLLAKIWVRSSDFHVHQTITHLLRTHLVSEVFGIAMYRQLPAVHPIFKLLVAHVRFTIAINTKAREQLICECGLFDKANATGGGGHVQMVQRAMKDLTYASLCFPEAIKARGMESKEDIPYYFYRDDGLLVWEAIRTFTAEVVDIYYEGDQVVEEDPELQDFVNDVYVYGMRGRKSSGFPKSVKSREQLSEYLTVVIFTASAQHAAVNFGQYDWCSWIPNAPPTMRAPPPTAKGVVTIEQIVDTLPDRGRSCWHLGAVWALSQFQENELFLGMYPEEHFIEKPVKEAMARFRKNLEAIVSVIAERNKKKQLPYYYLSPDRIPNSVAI
Method: as §1, §2, §3, §4, §5, §6

Row | SMILES | HillSlope Value [1] | Hill slope [2] | HillSlope Value [3] | IC50 ([1]; 1 μM Labelox B) [µM] | pIC50 ([2]; read-out: IC50 for attenuation of Labelox B mediated labeling) | IC50 ([3]; 1 μM Labelox B)
1 | O=c1cc(-c2ccccc2)oc2cc(O)c(O)c(O)c12 [Baicalein] | -0.47 | lower than 1 | -0.26 |  |  | 
2 | c1ccc2c(c1)SCc1c-2[nH]c2ccccc12 [PD146176] | -0.93 | around 1 | -0.99 | 17.3 | ~4.82 and 4.82 | ~17 µM and 14.8 µM

From paper PMC8518382, “Identification of a Bromodomain‐like Region in 15‐Lipoxygenase‐1 Explains Its Nuclear Localization” (Angewandte Chemie (International Ed. in English), 2021)
